The test system of data set [1] is HUVEC (human umbilical vein endothelial cell). Nature of the data set: MTT antiproliferative assay, HUVEC normal cells. The data set is classed as cell-based. Conditions: 72 h. The text has this:
(§1) All the synthesized compounds were screened for in vitro antiproliferative activity against four human cancer cell lines A549 (human lung cancer cell line), KB (human oral epidermoid carcinoma cell line), Hela (human cervical carcinoma cell line), MCF-7 (human breast cancer cell line) and two human normal cell lines HUVEC (human umbilical vein endothelial cell) and LO2 (human normal hepatocytes) through the 3-(4,5-dimethyl-2-thiazolyl)-2,5-diphenyl-2-H-tetrazolium bromide (MTT) assay.
(§2) Non-small-cell lung cancer (A549), oral epidermoid carcinoma (KB), cervical cancer (Hela) and breast cancer (MCF-7) cells were purchased from the American Type Culture Collection (ATCC, America). Human umbilical vein endothelial cell (HUVEC) and human normal hepatocytes (LO2) cells were provided by Guangzhou Medical University (Guangzhou, China). A549 and KB cells were cultured in RMPI-1640 medium (Gibco, America). Hela, MCF-7 and LO2 cells were cultured in DMEM medium (Gibco, America). HUVEC cells were cultured in Ham’s F-12K medium (Gibco, America). All the mediums were supplemented with 10% fetal bovine serum (FBS) (BI, State of Israel), 100 U/mL penicillin and 100 μg/mL streptomycin (Gibco, America), and all the cells were incubated in a sterile incubator at 37°C in an environment of 5% CO2. The tested compounds were dissolved in dimethyl sulfoxide (DMSO) at a concentration of 10 mM, and then diluted into different concentration of solutions by culture medium. The final concentration of DMSO was <0.01% (v/v) in all drug treatment groups to avoid the toxicity in the biological system. Untreated cells were used as a blank control and 5-fluorouracil treated cells were used as a positive control.
(§3) The incubated tumor cells were planted into 96-well plates (4×10^3 cells/well). After 24 h, the cells were adherent to the wall and treated with the compound 6e in different concentrations (0.78, 1.56, 3.12, 6.25, 12.50, 25.00, and 50.00 μM) for 72 h. Afterwards, the medium was supplemented with 10 µL MTT solution. After 4 h, the culture medium was removed and 100 µL DMSO was added. The absorbance was determined at the wavelength of 540 nm and 655 nm using a microplate reader (BioTek Epoch, America). The results were collected from three independent experiments. The IC50 was then calculated by using GraphPad Prism Software (version 7.0) and non-linear regression (curve fit).

For data set [2], the system named is Hela (human cervical carcinoma cell line). Kind of data set: MTT antiproliferative assay, Hela. It is filed as cell-based. The following applies: 72 h.
From the text: as §1, §2, §3
A general note: Tetrazolium assays rely on reduction of a dye to a coloured formazan, in cell work by metabolically active cells.

For data set [3], the system named is KB (human oral epidermoid carcinoma cell line). Nature of the data set: MTT antiproliferative assay, KB. The data set is classed as cell-based. Conditions: Homo sapiens; MTT, 72 h.
From the text: as §1, §2, §3

Data set [4] relates to A549 (human lung cancer cell line). Nature of the data set: MTT antiproliferative assay, A549. The data set is classed as cell-based. Conditions: for IC50: Homo sapiens, A549, MTT, 72 h.
From the text: as §1, §2, §3

For data set [5], the system named is LO2 (human normal hepatocytes). Kind of data set: MTT antiproliferative assay, LO2 normal cells. The data set is classed as cell-based. The following applies: Hepatocyte, 72 h.
From the text: as §1, §2, §3

Data set [6] concerns MCF-7 (human breast cancer cell line). Nature of the data set: MTT antiproliferative assay, MCF-7. The data set is classed as cell-based. The following applies: MCF7, 72 h.
From the text: as §1, §2, §3

In data set [7] the test system is various human cancer cells. Further details: method as in Yan et al., 2022. Conditions: ref Yan et al., 2022; read-out: IC50 values, anti-proliferative activities towards various human cancer cells; cited from earlier work.

Here are results for 15 molecules from paper PMC10076643, “Design, synthesis and anticancer activity studies of 3-(coumarin-3-yl)-acrolein derivatives: Evidenced by integrating network pharmacology and vitro assay” (Frontiers in Pharmacology, 2023).

`O=c1[nH]cc(F)c(=O)[nH]1` [5-FU, 5-Fluorouracil, reference compound]: the IC50 (usually the concentration that gives 50% inhibition) stood at 4.08 ± 0.06 µM in data set [1]; 1.37 ± 1.72 µM in data set [2]; 5.75 ± 2.23 µM in data set [3]; 7.41 ± 0.09 µM in data set [4]; 10.68 ± 0.03 µM in data set [5]; 19.2 ± 3.29 µM in data set [6].

Regarding `O=CC=C(Cl)c1cc2ccccc2oc1=O` [Compound 5a, 3-Chloro-3-(2-oxo-2H-chromen-3-yl)acrylaldehyde], the melting point – broadly, the temperature of the solid-liquid transition – was 167 to 169 °C. Further, the IC50 in data set [1] was 22.8 ± 0.35 µM. In data set [2], this molecule had an IC50 of 1.01 ± 0.28 µM. The same molecule had a half-maximal inhibitory concentration (IC50) in data set [3] of 1.3 ± 0.02 µM. For the same molecule, the IC50 in data set [4] was 7.97 ± 0.01 µM. Also, in data set [5], 40.34 ± 0.02 µM corresponded to half-maximal inhibition (IC50). In data set [6], this molecule had a 50% inhibitory concentration (IC50) of 3.55 ± 0.17 µM.

`O=CC=C(Cl)c1cc2ccc(O)cc2oc1=O` [Compound 5b, 3-Chloro-3-(7-hydroxy-2-oxo-2H-chromen-3-yl)acrylaldehyde] showed a melting point of 204 to 205 °C. In addition, the IC50 in data set [1] was greater than 100 µM. This molecule also returned an IC50 in data set [2] greater than 100 µM. Further, the 50% inhibitory concentration (IC50) in data set [3] is greater than 100 µM. Moreover, the IC50 in data set [4] was greater than 100 µM. Moreover, the IC50 in data set [5] was greater than 100 µM. This molecule came in with an IC50 in data set [6] of 6.74 ± 0.64 µM.

`CCN(CC)c1ccc2cc(C(Cl)=CC=O)c(=O)oc2c1` [Compound 5c, 3-Chloro-3-(7-(diethylamino)-2-oxo-2H-chromen-3-yl)acrylaldehyde]: the melting point lay in the range of 206 to 208 °C. In data set [1], this molecule had an IC50 of 6.42 ± 0.51 µM. Also, 4.85 ± 0.19 µM corresponded to half-maximal inhibition in data set [2] (IC50). Further, the IC50 in data set [3] was found to be 3.15 ± 0.09 µM. In addition, the IC50 in data set [4] worked out at 7.51 ± 0.02 µM. Further, in data set [5], the IC50 turned out to be 52.65 ± 0.07 µM. This molecule also returned an IC50 in data set [6] of 18.99 ± 0.18 µM.

As for `O=CC=C(Cl)c1cc2ccc(Br)cc2oc1=O` [Compound 5d, 3-(7-Bromo-2-oxo-2H-chromen-3-yl)-3-chloroacrylaldehyde], the melting point fell in the range of 182 to 183 °C. This molecule also came in with an IC50 in data set [1] of 10.52 ± 0.02 µM. The same molecule had an IC50 in data set [2] of 1.36 ± 0.43 µM. In addition, in data set [3], the IC50 was found to be 1.12 ± 0.03 µM. The “more potent than 5a and 5-FU” value in data set [4] (A549 cells, relative to 5a and 5-FU) was 10 fold. In data set [4], this molecule gave an IC50 of 0.7 ± 0.05 µM. For the same molecule, in data set [5], half-maximal inhibition (IC50) required 42.97 ± 0.04 µM. This molecule gave an IC50 in data set [6] of 4.23 ± 0.15 µM.

In the case of `O=CC=C(Cl)c1cc2cc(O)ccc2oc1=O` [Compound 5e, 3-Chloro-3-(6-hydroxy-2-oxo-2H-chromen-3-yl)acrylaldehyde], the melting point lay in the range of 250 to 252 °C. The same molecule gave an IC50 in data set [1] of 34.84 ± 0.11 µM. In data set [2], the IC50 was greater than 100 µM. Further, the midpoint of inhibition in data set [3], the IC50, lay at 3.23 ± 0.3 µM. Also, in data set [4], 6.67 ± 0.01 µM corresponded to half-maximal inhibition (IC50). Moreover, in data set [5], the concentration for half-maximal inhibition (IC50) is 14.11 ± 0.04 µM. The molecule further had an IC50 in data set [6] of 8.71 ± 0.31 µM.

`Cc1ccc2oc(=O)c(C(Cl)=CC=O)cc2c1` [Compound 5f, 3-Chloro-3-(6-methyl-2-oxo-2H-chromen-3-yl)acrylaldehyde] displayed a melting point of 179 to 181 °C. Also, the IC50 in data set [1] is 27.38 ± 0.24 µM. The same molecule returned an IC50 in data set [2] of 3.82 ± 0.11 µM. The molecule also yielded an IC50 in data set [3] of 2.22 ± 0.04 µM. The IC50 in data set [4] is 4.57 ± 0.01 µM. Half-maximal inhibition in data set [5] (IC50) was put at 25.01 ± 0.03 µM. For the same molecule, the half-maximal inhibitory concentration (IC50) in data set [6] worked out at 20.1 ± 0.32 µM.

Regarding `O=CC=C(Cl)c1cc2cc(Br)ccc2oc1=O` [Compound 5g, 3-(6-Bromo-2-oxo-2H-chromen-3-yl)-3-chloroacrylaldehyde], the melting point fell in the range of 199 to 201 °C. This molecule also yielded an IC50 in data set [1] of 10.9 ± 0.02 µM. For the same molecule, the IC50 in data set [2] was determined as 13.4 ± 0.22 µM. Besides, the 50% inhibitory concentration (IC50) in data set [3] was found to be 0.87 ± 0.01 µM. The molecule further returned an IC50 in data set [4] of 2.45 ± 0.01 µM. Half-maximal inhibition in data set [5] (IC50) required 66.36 ± 0.09 µM. This molecule came in with an IC50 in data set [6] of 9.25 ± 0.1 µM.

`COc1ccc2cc(C(Cl)=CC=O)c(=O)oc2c1` [Compound 6a, 3-Chloro-3-(7-methoxy-2-oxo-2H-chromen-3-yl)acrylaldehyde] returned a melting point of 202 to 203 °C. Inhibition in data set [1] was half-maximal at 10.09 ± 0.07 µM (IC50). In data set [2], this molecule showed a half-maximal inhibitory concentration (IC50) greater than 100 µM. This molecule had an IC50 in data set [3] of 3.41 ± 0.4 µM. In addition, the IC50 in data set [4] amounted to 2.78 ± 0.01 µM. In addition, inhibition in data set [5] was half-maximal at 61.04 ± 0.03 µM (IC50). Besides, in data set [6], the half-inhibitory concentration (IC50) came to 12.4 ± 0.49 µM.

As for `CCOc1ccc2cc(C(Cl)=CC=O)c(=O)oc2c1` [Compound 6b, 3-Chloro-3-(7-ethoxy-2-oxo-2H-chromen-3-yl)acrylaldehyde], the melting point lay in the range of 195 to 196 °C. The same molecule registered an IC50 in data set [1] greater than 100 µM. The molecule further had a 50% inhibitory concentration (IC50) in data set [2] of 2.91 ± 0.17 µM. This molecule yielded an IC50 in data set [3] greater than 100 µM. In data set [4], inhibition was half-maximal at 11.34 ± 0.07 µM (IC50). In data set [5], this molecule displayed an IC50 greater than 100 µM. The same molecule had an IC50 in data set [6] of 23.29 ± 0.2 µM.

Consider `CCCOc1ccc2cc(C(Cl)=CC=O)c(=O)oc2c1` [Compound 6c, 3-Chloro-3-(2-oxo-7-propoxy-2H-chromen-3-yl)acrylaldehyde], for which the melting point lay in the range of 150 to 152 °C. The IC50 in data set [1] was 53.92 ± 0.46 µM. Moreover, the IC50 in data set [2] is greater than 100 µM. In data set [3], this molecule yielded an IC50 of 4.54 ± 0.11 µM. The molecule further gave a concentration for half-maximal inhibition (IC50) in data set [4] of 6.28 ± 0.04 µM. Moreover, half-maximal inhibition in data set [5] (IC50) required 43.52 ± 0.03 µM. Further, the midpoint of inhibition in data set [6], the IC50, lay at 1.73 ± 0.01 µM.

`CC(C)Oc1ccc2cc(C(Cl)=CC=O)c(=O)oc2c1` [Compound 6d, 3-Chloro-3-(7-isopropoxy-2-oxo-2H-chromen-3-yl)acrylaldehyde]: the melting point was 149 to 151 °C. The molecule also gave an IC50 in data set [1] of 31.92 ± 0.07 µM. The IC50 in data set [2] turned out to be 22.7 ± 0.21 µM. In data set [3], this molecule came in with an IC50 of 4.28 ± 0.02 µM. This molecule showed an IC50 in data set [4] of 5.61 ± 0.01 µM. Further, 33.27 ± 0.02 µM corresponded to half-maximal inhibition in data set [5] (IC50). The same molecule yielded an IC50 in data set [6] of 51.63 ± 0.13 µM.

`O=CC=C(Cl)c1cc2ccc(OCc3ccc([N+](=O)[O-])cc3)cc2oc1=O` [Compound 6f, 3-Chloro-3-(7-((4-nitrobenzyl)oxy)-2-oxo-2H-chromen-3-yl)acrylaldehyde] yielded a melting point of 250 to 252 °C. The IC50 in data set [1] is greater than 100 µM. In data set [2], this molecule displayed an IC50 greater than 100 µM. In addition, the IC50 in data set [3] is greater than 100 µM. This molecule also showed an IC50 in data set [4] greater than 100 µM. In data set [5], this molecule showed an IC50 greater than 100 µM. The 50% inhibitory concentration (IC50) in data set [6] is greater than 100 µM.

For the molecule `O=CC=C(Cl)c1cc2ccc(OCc3cccc(Br)c3)cc2oc1=O` [Compound 6g, 3-(7-((3-Bromobenzyl)oxy)-2-oxo-2H-chromen-3-yl)-3-chloroacrylaldehyde], the melting point fell in the range of 217 to 219 °C. For the same molecule, the IC50 in data set [1] is greater than 100 µM. In addition, the half-maximal inhibitory concentration (IC50) in data set [2] is greater than 100 µM. In data set [3], this molecule gave an IC50 greater than 100 µM. Also, the IC50 in data set [4] is greater than 100 µM. In data set [5], this molecule displayed an IC50 greater than 100 µM. The same molecule came in with an IC50 in data set [6] of 5.13 ± 0.07 µM.

With `COc1ccc2c(/C=C(\C)C(=O)c3cc(OC)c(OC)c([Se]C)c3)c[nH]c2c1` [compound J], in data set [7], the IC50 was 0.008 to 0.035 µM.
